By IC50 is commonly meant the point on the concentration scale where inhibition reaches its midpoint. For orientation: melting point means the temperature, or range, at which the solid turns liquid.

Data set [1] deals with HER-2. Description: HER-2 expression level in MCF-7 cells (ELISA). The data set is classed as cell-based, human. Conditions: untreated control 559.00 ± 33.9. On the procedure:
(§1) In this study, we further explored the impact of cyanopyridones 5a and 5e on VEGFR-2 and HER-2 expression levels in MCF-7 cells (Figure 5). The results disclosed that both 5a and 5e had interesting profiles for reduction of VEGFR-2/HER-2 expression levels compared to the control cells and the reference drug taxol.
(§2) Assessment was performed using a VEGFR-2 (human) SimpleStep ELISA kit (ab213476) and HER-2 (human) SimpleStep ELISA kit (ab100510) (abcam® Cambridge, CB2 0AX, Cambridge, UK) according to manufacturer instructions. In brief, tissue culture supernatant was added to the anti-tag antibody-coated wells, followed by the secondary antibody mix. To remove unbound material, the wells were washed after incubation. […] The final step in the transformation from blue to yellow was the addition of a stop solution, which halted the reaction. The intensity of the signal generated at 450 nm was proportional to the amount of bound analyte.
For orientation: An ELISA detects its analyte on a solid surface through an enzyme-linked reagent.

The test system of the next data set is MCF-7 cell line. Description: MTT cytotoxicity assay, MCF-7. It is filed as cell-based. Conditions: Homo sapiens, MCF7, 48 h, mean ± S.D. of three experiments, 50% growth inhibition. Here is the method:
(§3) The MTT colorimetric assay is a very sensitive method used to measure the potential cytotoxicity (loss of viable cells) of targeted compounds. […] The drug taxol was used as the reference standard. Cell morphological changes were recorded to determine the cytotoxic effect, and the results are found in Table 1, Figure 3.
(§4) In vitro testing was performed on HepG2 and MCF-7 cell lines to determine the antitumor activity of the newly synthesized chemical compounds. Both cell lines originally came from Egypt’s National Cancer Institute (NCI), housed at Cairo University. At 37 °C with 5% […], the cells were grown in RPMI 1640 containing 10% fetal bovine serum, 50 micrograms per milliliter of streptomycin, and 100 international units per milliliter of penicillin. After trypsinization with 0.05% trypsin-EDTA, cell growth and morphology were evaluated, and passages were made when cells reached 80–90% confluence.
(§5) The MTT assay protocol is described in the Supplementary Materials.
(§6) The MTT assay was used to determine the effects of the newly synthesized compounds on cell viability. In a nutshell, 1 × 10^4 cells/well were seeded in a 96-well plate and allowed to grow for 24 hours. After 24 hours, the original medium was discarded, and a new compounds-containing medium was added. After 48 hours, the media was changed out and 100 μL of MTT (10 μL from (MTT) stock solution (5 mg/ml in PBS) in 100 μL media) was added to each well, and the plates were incubated at 37° C for 4 hours. After adding 100 μL of acidified isopropanol to each well, the formed formazan crystals were dissolved, and the absorbance was read at 570 nm using an ELISA microplate reader (Epoc-2C micro-plate reader, Bio Tek, VT, USA). There were three separate runs of every experiment. Half-maximal inhibitory concentrations (IC50) were determined by fitting sigmoidal dose-response curves.
(§7) GraphPad Prism 8.0 (San Diego, CA, USA) analyzed all results. All results (three independent experiments) were shown as means ± standard deviation. The significance of the differences in the outcomes of all groups was examined using ANOVA and Tukey’s
(In general: Formazan colour is commonly taken as a measure of viable cells.)

The subject of data set [2] is VEGFR-2. Description: VEGFR-2 expression level in MCF-7 cells (ELISA). It is filed as cell-based, human. Conditions: untreated control 1573.00 ± 36.9. Here is the method: as §1, §2
In the next data set the test system is HepG2 cell line. The data set can be described thus: MTT cytotoxicity assay, HepG2. The data set is classed as cell-based. Conditions: Homo sapiens, 48 h, mean ± S.D. of three experiments, 50% growth inhibition. Here is the method: as §3, §4, §5, §6, §7
The target in data set [3] is T1, HER-2 (Homo sapiens, UniProt P04626).
T1 construct: Effects of compounds 5e and 5a on VEGFR-2 and HER2 (µM) in MCF-7 cells compared to control; endogenous in cells; host or cells: MCF-7
T1 sequence (P04626 23-1255): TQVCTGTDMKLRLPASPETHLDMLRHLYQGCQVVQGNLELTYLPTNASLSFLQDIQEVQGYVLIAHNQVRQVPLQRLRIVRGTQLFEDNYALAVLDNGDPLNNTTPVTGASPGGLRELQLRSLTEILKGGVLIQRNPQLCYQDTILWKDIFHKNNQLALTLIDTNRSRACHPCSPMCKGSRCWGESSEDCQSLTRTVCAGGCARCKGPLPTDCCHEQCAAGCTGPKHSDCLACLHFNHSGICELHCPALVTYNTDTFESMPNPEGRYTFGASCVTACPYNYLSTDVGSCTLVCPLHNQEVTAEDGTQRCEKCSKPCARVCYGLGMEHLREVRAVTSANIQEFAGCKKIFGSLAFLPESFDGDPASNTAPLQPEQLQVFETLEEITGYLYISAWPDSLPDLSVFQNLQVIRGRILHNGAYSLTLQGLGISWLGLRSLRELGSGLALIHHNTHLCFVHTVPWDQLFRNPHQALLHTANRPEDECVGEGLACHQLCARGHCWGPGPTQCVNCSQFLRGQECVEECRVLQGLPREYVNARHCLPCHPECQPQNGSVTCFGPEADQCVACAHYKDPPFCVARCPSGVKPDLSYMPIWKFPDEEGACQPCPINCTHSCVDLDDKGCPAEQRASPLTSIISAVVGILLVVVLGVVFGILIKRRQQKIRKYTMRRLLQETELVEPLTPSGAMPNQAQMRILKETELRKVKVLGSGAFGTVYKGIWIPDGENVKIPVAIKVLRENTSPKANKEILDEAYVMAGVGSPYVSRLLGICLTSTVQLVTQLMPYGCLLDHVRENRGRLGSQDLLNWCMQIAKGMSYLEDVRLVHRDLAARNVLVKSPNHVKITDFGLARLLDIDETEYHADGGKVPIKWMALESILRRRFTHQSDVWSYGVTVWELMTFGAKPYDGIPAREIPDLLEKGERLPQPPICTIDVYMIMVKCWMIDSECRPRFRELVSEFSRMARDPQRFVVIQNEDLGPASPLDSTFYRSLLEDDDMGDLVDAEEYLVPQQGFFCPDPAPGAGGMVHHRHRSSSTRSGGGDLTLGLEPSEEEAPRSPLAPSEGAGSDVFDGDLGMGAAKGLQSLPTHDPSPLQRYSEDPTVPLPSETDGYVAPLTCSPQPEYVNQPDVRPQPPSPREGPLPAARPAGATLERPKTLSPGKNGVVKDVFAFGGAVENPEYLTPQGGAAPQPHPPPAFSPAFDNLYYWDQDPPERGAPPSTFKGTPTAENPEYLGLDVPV
The data set can be described thus: In vitro HER-2 inhibition assay. It is filed as biochemical. Conditions: mean of three replicates ± S.D. Here is the method: as §2

Data set [4] deals with T2, VEGFR-2 (Homo sapiens, UniProt P35968).
T2 construct: Effects of compounds 5e and 5a on VEGFR-2 and HER2 (µM) in MCF-7 cells compared to control; endogenous in cells; host or cells: MCF-7
T2 sequence (P35968 20-1356): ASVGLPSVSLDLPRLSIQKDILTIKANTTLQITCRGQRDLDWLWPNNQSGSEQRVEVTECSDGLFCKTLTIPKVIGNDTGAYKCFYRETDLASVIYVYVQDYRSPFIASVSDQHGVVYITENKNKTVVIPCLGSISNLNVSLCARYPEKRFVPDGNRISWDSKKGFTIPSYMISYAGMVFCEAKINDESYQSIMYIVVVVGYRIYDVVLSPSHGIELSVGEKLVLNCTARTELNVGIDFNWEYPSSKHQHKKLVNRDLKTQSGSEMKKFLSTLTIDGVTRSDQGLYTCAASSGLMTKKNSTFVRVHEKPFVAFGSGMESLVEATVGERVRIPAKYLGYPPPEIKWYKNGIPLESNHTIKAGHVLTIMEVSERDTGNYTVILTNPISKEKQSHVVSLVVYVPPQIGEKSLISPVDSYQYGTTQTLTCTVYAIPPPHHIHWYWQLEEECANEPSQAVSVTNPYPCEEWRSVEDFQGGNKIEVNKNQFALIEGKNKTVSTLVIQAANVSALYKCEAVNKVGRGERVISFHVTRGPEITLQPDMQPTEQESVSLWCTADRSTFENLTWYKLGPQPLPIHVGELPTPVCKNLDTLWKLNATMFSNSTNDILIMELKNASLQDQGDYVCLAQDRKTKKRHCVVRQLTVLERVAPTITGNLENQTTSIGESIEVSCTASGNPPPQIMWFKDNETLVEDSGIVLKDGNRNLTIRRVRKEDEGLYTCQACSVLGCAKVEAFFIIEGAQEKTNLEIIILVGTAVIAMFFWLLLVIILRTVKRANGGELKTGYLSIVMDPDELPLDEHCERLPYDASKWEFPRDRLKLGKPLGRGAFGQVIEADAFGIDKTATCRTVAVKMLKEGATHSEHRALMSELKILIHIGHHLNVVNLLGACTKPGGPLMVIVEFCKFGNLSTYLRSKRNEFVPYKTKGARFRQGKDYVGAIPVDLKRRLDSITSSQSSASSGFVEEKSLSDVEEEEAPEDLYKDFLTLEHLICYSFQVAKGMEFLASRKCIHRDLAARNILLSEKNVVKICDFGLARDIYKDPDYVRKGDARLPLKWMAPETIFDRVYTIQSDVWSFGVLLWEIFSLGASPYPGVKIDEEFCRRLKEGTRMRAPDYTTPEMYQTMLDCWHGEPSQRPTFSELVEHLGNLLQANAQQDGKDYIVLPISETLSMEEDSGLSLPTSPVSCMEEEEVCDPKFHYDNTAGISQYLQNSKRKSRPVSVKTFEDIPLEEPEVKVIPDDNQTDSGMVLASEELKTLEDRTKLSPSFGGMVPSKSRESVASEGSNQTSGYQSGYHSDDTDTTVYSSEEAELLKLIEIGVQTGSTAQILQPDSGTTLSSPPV
Description: In vitro VEGFR-2 inhibition assay. The data set is classed as biochemical. Conditions: mean of three replicates ± S.D. Here is the method: as §2

The next data set has as its system MCF-7 breast cancer. The arrangement: method as in PMID 26729087. Conditions: cited from earlier work.
The subject of a further data set is SF-268 CNS cancer. Also noted: method as in PMID 26729087. Conditions: cited from earlier work.
The test system of data set [5] is NCI-H460 non-small cell lung cancer. The arrangement: method as in PMID 26729087. Conditions: cited from earlier work.
Data set [6] has as its system HER-2. Also noted: method as in doi:10.1039/C5MD00602C. Conditions: reported by Pfizer; cited from earlier work.

Converted amounts (≈) assume the structure as drawn. “And” between values parts separate entries of the source, which are not always exact repeats. Equal entries are not always repeated.

With `CC(=O)O[C@H]1C(=O)[C@@]2(C)[C@H]([C@H](OC(=O)c3ccccc3)[C@]3(O)C[C@H](OC(=O)[C@H](O)[C@@H](NC(=O)c4ccccc4)c4ccccc4)C(C)=C1C3(C)C)[C@]1(OC(C)=O)CO[C@@H]1C[C@@H]2O` [Taxol, paclitaxel, reference compound], the “HER-2 (pg/mL) expression level” value in the data set on HER-2 [1] is listed as 199.10 ± 8.6 pg/mL. The values for the half-maximal inhibitory concentration (IC50) in the data set on MCF-7 cell line and in the data set with HepG2 cell line were 8.48 ± 0.46 µM and 14.6 ± 0.79 µM, respectively. In the data set on VEGFR-2 [2], the “VEGFR-2 (pg/mL) expression level” value was 660.10 ± 31.4 pg/mL.
On to `Cc1nc2c(c(-c3ccccc3)c(C#N)c(=O)n2-c2cccc(C(F)(F)F)c2)c(=O)[nH]1` [Compound 7a], for which the melting point lay in the range of 308 to 310 °C. The same compound had an IC50 in the data set with MCF-7 cell line of 10.7 ± 0.58 µM. In the data set with HepG2 cell line, the concentration for half-maximal inhibition (IC50) was 16.3 ± 0.88 µM.
`N#Cc1c(-c2ccc([N+](=O)[O-])cc2)c(C#N)c(=O)n(-c2cccc(C(F)(F)F)c2)c1N` [Compound 5c]: the melting point was in the range of 229 to 230 °C. The same compound came in with a half-maximal inhibitory concentration (IC50) with MCF-7 cell line of 20.2 ± 1.09 µM. Besides, in the data set on HepG2 cell line, the IC50 worked out at 4.01 ± 0.22 µM.
As for `N#Cc1c(-c2ccc(Cl)cc2Cl)c(C#N)c(=O)n(-c2cccc(C(F)(F)F)c2)c1N` [Compound 5e], the melting point lay within 239 to 241 °C. This compound showed an IC50 on HER-2 [3] of 0.077 ± 0.003 µM. The IC50 on VEGFR-2 [4] worked out at 0.124 ± 0.011 µM. Further, the “HER-2 (pg/mL) expression level” value with HER-2 [1] was 148.60 pg/mL and 148.60 ± 5.5 pg/mL. The compound further came in with a 50% inhibitory concentration (IC50) in the data set with MCF-7 cell line of 1.39 ± 0.08 µM. Besides, the “VEGFR-2 (pg/mL) expression level” value in the data set on VEGFR-2 [2] is 510.00 pg/mL and 510.00 ± 20.2 pg/mL. The compound also yielded an IC50 in the data set on HepG2 cell line of 10.7 ± 0.58 µM.
Compound `COc1cc(-c2c(C#N)c(N)n(-c3cccc(C(F)(F)F)c3)c(=O)c2C#N)cc(OC)c1OC` [Compound 5f] registered a melting point of 195 to 197 °C. Besides, it took 54.2 ± 2.93 µM to reach half-maximal inhibition in the data set with MCF-7 cell line (IC50). In the data set on HepG2 cell line, the IC50 came to 40.6 ± 2.19 µM.
For `N#Cc1c(-c2ccc(Cl)cc2)c2c(=O)[nH]cnc2n(-c2cccc(C(F)(F)F)c2)c1=O` [Compound 6b], the melting point lay within 350 to 352 °C. The IC50 in the data set on MCF-7 cell line was 14 ± 0.76 µM. In the data set on HepG2 cell line, this compound had an IC50 of 2.68 ± 0.14 µM.
As for `N#Cc1c(-c2ccc(Cl)cc2)c(C#N)c(=O)n(-c2cccc(C(F)(F)F)c2)c1N` [Compound 5d], the melting point was in the range of 324 to 326 °C. This compound yielded an IC50 in the data set with MCF-7 cell line of 13.7 ± 0.74 µM. Moreover, the half-maximal inhibitory concentration (IC50) with HepG2 cell line worked out at 22.5 ± 1.22 µM.
Consider `CCC(=O)COc1nc(-c2cc(Cl)ccc2Cl)cc(-c2ccc(F)cc2)c1C#N` [III], for which the “IC50 cell growth inhibition, MCF-7” value in the data set with MCF-7 breast cancer is 0.02 µg/mL (≈ 0.0466 µM). Moreover, in the data set on SF-268 CNS cancer, the “IC50 cell growth inhibition, SF-268” value was 0.02 µg/mL (≈ 0.0466 µM). The “IC50 cell growth inhibition, NCI-H460” value in data set [5] is listed as 0.01 µg/mL (≈ 0.0233 µM).
`N#Cc1c(-c2ccc(O)cc2)c(C#N)c(=O)n(-c2cccc(C(F)(F)F)c2)c1N` [Compound 5b]: the melting point was in the range of 330 to 332 °C. Besides, half-maximal inhibition in the data set with MCF-7 cell line (IC50) required 24.7 ± 1.33 µM. In the data set with HepG2 cell line, inhibition was half-maximal at 11.4 ± 0.61 µM (IC50).
Take `COC(=O)NCC#Cc1ccc2ncnc(Nc3ccc(Oc4cccc(C)n4)c(C)c3)c2c1` [V]: in the data set on HER-2 [6], the anti-HER-2 activity result is reported as “lower than 42 nM”.
The compound `N#Cc1c(-c2ccccc2)c(C#N)c(=O)n(-c2cccc(C(F)(F)F)c2)c1N` [Compound 5a] came in with a melting point of 280 to 282 °C. Half-maximal inhibition at HER-2 [3] (IC50) required 0.168 ± 0.009 µM. Besides, on VEGFR-2 [4], the IC50 came to 0.217 ± 0.02 µM. In addition, the “HER-2 (pg/mL) expression level” value in the data set on HER-2 [1] was 299.50 pg/mL and 299.50 ± 4.7 pg/mL. The compound also displayed an IC50 in the data set on MCF-7 cell line of 1.77 ± 0.1 µM. Also, the “VEGFR-2 (pg/mL) expression level” value in the data set on VEGFR-2 [2] is 884.30 pg/mL and 884.30 ± 29.3 pg/mL. The compound also gave a concentration for half-maximal inhibition (IC50) in the data set on HepG2 cell line of 2.71 ± 0.15 µM.
As for `CC(=O)Oc1ccc(-c2c(C#N)c(=O)n(-c3cccc(C(F)(F)F)c3)c3nc(C)[nH]c(=O)c23)cc1` [Compound 7d], the melting point fell in the range of 320 to 322 °C. For the same compound, inhibition with MCF-7 cell line was half-maximal at 43.4 ± 2.35 µM (IC50). This compound had an IC50 in the data set with HepG2 cell line of 52.5 ± 2.84 µM.
`Cc1nc2c(c(-c3ccc(Cl)cc3)c(C#N)c(=O)n2-c2cccc(C(F)(F)F)c2)c(=O)[nH]1` [Compound 7b] registered a melting point of 330 to 332 °C. In the data set with MCF-7 cell line, this compound returned a concentration for half-maximal inhibition (IC50) of 6.22 ± 0.34 µM. The midpoint of inhibition in the data set with HepG2 cell line, the IC50, lay at 19.6 ± 1.06 µM.
As for `Cc1nc2c(c(-c3ccc(Cl)cc3Cl)c(C#N)c(=O)n2-c2cccc(C(F)(F)F)c2)c(=O)[nH]1` [Compound 7c], the melting point was in the range of 333 to 335 °C. Moreover, it took 9.28 ± 0.5 µM to reach half-maximal inhibition in the data set with MCF-7 cell line (IC50). Half-maximal inhibition in the data set on HepG2 cell line (IC50) required 5.04 ± 0.27 µM.
`COc1cc(-c2c(C#N)c(=O)n(-c3cccc(C(F)(F)F)c3)c3nc(C)[nH]c(=O)c23)cc(OC)c1OC` [Compound 7e]: the melting point was 150 to 152 °C. In the data set on MCF-7 cell line, this compound yielded a half-inhibitory concentration (IC50) of 27.8 ± 1.5 µM. The concentration for half-maximal inhibition (IC50) with HepG2 cell line was found to be 71.9 ± 3.88 µM.
`N#Cc1c(-c2ccc(O)cc2)c2c(=O)[nH]cnc2n(-c2cccc(C(F)(F)F)c2)c1=O` [Compound 6a] displayed a melting point of 300 to 302 °C. In addition, the concentration for half-maximal inhibition (IC50) in the data set with HepG2 cell line is 7.27 ± 0.39 µM.
